Test results taken from ChEMBL document CHEMBL5291721, “A preclinical secondary pharmacology resource illuminates target-adverse drug reaction associations of marketed drugs” (Nat Commun, 2023).
Blank lines part the entries; values can stand above or below the compound they belong to.

Assays:
[1] = biological target: D(1A) dopamine receptor (Homo sapiens, UniProt P21728)
[2] = biological target: T1, Gamma-aminobutyric acid receptor subunit alpha-1 (Rattus norvegicus, UniProt P62813)
[3] = biological target: Prostaglandin G/H synthase 1 (Homo sapiens, UniProt P23219); format: functional
[4] = biological target: Adenosine receptor A2a (Homo sapiens, UniProt P29274)
[5] = biological target: T2, Alpha-2A adrenergic receptor (Homo sapiens, UniProt P08913); format: functional, cell-based
T2 sequence (P08913 whole entry): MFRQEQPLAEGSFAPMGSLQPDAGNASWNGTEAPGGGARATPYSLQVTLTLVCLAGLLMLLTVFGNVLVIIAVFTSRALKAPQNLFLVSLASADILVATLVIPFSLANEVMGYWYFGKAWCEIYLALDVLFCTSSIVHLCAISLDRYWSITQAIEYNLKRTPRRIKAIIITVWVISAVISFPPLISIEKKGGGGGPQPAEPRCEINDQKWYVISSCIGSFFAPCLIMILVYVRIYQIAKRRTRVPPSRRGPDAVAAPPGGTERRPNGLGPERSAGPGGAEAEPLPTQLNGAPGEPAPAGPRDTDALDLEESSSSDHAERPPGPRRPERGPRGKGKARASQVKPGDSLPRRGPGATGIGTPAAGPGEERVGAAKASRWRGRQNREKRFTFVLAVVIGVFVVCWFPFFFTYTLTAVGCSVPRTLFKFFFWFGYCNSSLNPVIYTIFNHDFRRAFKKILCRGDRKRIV

[6] = biological target: Voltage-dependent L-type calcium channel subunit alpha-1C (Rattus norvegicus, UniProt P22002); format: functional
[7] = biological target: T3, Muscarinic acetylcholine receptor M1 (Homo sapiens, UniProt P11229); format: functional
T3 sequence (P11229 whole entry): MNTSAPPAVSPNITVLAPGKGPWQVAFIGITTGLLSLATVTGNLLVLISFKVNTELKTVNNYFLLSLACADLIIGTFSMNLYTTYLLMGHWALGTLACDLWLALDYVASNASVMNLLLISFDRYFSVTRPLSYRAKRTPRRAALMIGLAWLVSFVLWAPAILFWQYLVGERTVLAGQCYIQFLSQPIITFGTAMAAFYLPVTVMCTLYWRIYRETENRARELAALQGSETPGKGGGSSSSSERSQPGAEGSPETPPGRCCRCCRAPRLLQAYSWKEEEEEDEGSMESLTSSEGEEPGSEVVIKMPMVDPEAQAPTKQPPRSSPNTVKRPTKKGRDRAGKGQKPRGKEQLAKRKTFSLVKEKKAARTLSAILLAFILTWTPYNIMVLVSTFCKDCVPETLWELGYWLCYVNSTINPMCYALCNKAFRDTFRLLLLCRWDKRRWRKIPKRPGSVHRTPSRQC

[8] = biological target: T1, Gamma-aminobutyric acid receptor subunit alpha-1; format: functional
[9] = biological target: 5-hydroxytryptamine receptor 2B (Homo sapiens, UniProt P41595); format: functional, cell-based
[10] = biological target: T4, Equilibrative nucleoside transporter 1 (Homo sapiens, UniProt Q99808)
T4 sequence (Q99808 whole entry): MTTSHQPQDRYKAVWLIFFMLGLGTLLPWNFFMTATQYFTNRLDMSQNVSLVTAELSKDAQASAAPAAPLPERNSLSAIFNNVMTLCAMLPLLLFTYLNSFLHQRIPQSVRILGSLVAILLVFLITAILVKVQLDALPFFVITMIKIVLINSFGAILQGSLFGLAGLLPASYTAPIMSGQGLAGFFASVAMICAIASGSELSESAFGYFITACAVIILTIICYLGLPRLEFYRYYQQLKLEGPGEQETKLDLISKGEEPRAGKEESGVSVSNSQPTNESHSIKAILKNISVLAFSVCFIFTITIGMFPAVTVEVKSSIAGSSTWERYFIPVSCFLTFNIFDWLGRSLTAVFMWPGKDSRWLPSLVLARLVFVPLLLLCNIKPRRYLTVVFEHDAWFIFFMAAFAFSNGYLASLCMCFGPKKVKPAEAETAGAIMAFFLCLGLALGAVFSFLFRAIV

[11] = biological target: T5, Amine oxidase [flavin-containing] A (Homo sapiens, UniProt P21397); format: functional
T5 sequence (P21397 whole entry): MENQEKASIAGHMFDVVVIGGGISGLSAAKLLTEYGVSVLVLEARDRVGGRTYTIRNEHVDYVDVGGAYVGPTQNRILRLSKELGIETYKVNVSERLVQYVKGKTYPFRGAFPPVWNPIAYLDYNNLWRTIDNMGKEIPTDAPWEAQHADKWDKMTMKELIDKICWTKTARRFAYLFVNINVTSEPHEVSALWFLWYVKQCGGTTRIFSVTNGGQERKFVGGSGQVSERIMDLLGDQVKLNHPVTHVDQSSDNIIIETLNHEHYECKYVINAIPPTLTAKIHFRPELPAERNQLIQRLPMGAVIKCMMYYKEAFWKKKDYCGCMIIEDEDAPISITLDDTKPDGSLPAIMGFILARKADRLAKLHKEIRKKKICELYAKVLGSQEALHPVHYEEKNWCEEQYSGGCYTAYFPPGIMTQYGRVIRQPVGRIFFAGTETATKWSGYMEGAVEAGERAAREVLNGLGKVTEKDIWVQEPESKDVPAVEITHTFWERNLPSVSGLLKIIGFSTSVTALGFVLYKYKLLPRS

[12] = biological target: Histamine H3 receptor (Homo sapiens, UniProt Q9Y5N1)
Further: assay procedure not described here.

T1 sequence (P62813 whole entry): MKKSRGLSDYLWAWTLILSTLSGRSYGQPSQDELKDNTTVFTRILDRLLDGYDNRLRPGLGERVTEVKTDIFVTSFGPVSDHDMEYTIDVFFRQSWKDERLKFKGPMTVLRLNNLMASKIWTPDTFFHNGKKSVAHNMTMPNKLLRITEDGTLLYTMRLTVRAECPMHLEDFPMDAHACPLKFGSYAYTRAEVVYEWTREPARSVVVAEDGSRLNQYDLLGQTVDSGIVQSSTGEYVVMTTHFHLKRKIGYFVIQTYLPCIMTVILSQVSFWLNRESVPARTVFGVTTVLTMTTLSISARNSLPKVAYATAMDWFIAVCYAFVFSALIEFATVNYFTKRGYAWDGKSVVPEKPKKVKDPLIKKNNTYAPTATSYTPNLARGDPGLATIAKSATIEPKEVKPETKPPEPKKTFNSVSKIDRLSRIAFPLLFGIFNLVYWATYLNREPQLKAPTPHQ
Histamine H3 receptor, sequence (Q9Y5N1 whole entry): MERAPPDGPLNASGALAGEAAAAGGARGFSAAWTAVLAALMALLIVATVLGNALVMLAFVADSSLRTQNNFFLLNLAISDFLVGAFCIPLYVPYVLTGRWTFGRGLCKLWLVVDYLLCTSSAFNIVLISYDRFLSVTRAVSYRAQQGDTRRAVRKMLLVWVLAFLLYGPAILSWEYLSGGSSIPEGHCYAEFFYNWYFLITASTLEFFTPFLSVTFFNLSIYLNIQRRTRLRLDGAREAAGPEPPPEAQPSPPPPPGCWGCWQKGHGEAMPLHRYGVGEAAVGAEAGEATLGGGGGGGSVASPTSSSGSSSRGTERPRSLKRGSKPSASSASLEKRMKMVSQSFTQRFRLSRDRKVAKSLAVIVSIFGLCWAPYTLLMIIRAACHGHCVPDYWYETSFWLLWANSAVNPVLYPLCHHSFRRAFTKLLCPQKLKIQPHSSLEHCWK
Voltage-dependent L-type calcium channel subunit alpha-1C, sequence (P22002 whole entry): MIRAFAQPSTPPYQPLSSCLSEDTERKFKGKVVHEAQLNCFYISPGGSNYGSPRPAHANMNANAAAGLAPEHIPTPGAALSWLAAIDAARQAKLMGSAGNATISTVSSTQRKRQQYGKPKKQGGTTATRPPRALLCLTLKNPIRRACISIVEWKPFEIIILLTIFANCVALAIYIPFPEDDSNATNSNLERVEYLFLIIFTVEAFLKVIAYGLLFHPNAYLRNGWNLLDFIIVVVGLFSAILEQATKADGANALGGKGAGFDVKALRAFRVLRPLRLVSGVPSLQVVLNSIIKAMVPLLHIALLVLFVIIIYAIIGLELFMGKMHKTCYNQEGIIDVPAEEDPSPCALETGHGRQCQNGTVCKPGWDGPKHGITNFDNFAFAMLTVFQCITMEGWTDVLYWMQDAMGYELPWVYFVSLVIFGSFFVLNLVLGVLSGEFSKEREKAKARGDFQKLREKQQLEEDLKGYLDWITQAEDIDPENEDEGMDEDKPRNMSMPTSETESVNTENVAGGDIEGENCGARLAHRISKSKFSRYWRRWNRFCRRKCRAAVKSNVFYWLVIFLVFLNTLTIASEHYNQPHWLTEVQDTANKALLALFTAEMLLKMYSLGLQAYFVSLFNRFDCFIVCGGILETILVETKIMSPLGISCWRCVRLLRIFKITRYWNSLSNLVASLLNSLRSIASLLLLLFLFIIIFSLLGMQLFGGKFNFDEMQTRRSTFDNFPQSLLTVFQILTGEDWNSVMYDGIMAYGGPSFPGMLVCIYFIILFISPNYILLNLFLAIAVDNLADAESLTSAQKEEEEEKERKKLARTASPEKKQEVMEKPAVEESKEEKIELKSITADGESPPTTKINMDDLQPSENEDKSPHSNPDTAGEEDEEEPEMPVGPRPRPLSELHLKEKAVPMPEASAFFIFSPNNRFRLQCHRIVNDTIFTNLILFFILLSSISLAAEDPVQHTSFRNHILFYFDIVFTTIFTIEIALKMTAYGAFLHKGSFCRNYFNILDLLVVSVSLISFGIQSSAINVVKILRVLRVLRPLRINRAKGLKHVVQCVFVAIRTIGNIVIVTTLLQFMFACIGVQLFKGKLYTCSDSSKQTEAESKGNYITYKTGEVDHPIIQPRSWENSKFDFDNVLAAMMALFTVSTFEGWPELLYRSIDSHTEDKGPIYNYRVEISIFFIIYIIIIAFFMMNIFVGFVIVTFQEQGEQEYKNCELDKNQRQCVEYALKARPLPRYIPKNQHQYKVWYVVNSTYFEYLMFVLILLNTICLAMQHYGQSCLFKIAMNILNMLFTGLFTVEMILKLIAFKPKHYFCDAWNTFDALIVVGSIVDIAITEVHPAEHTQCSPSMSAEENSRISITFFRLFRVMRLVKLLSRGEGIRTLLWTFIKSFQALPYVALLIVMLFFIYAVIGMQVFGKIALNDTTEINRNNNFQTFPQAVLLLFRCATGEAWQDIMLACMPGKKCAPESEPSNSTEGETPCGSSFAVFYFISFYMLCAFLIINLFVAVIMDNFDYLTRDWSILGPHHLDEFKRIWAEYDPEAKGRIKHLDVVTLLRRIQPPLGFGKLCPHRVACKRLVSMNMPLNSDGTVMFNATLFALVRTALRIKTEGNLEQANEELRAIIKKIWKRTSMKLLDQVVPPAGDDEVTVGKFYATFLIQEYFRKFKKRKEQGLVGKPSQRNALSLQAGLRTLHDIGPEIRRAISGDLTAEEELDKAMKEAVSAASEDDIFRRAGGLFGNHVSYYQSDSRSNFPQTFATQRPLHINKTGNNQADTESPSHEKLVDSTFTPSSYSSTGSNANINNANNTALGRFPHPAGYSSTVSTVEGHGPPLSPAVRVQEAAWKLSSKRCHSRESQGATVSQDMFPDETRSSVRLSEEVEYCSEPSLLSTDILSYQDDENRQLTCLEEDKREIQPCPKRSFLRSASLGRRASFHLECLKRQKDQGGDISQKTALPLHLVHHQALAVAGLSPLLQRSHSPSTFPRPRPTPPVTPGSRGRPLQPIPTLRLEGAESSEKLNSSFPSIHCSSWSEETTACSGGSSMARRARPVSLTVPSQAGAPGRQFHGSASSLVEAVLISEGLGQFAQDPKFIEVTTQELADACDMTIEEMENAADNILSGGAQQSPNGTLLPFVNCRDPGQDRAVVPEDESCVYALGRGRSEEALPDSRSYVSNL
5-hydroxytryptamine receptor 2B, sequence (P41595 whole entry): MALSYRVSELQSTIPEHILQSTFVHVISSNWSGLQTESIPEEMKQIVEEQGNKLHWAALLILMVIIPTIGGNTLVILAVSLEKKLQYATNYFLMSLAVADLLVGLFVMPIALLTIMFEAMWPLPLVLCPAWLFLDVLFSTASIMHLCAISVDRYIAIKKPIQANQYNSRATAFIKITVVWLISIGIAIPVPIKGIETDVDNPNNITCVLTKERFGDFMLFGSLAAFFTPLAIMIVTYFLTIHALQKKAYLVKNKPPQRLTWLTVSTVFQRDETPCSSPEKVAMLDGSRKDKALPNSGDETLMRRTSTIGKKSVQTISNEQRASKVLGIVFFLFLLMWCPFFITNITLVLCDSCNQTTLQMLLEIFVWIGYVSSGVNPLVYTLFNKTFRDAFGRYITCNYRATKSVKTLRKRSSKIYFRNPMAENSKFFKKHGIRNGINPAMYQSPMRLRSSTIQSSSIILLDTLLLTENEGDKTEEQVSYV
Prostaglandin G/H synthase 1, sequence (P23219 whole entry): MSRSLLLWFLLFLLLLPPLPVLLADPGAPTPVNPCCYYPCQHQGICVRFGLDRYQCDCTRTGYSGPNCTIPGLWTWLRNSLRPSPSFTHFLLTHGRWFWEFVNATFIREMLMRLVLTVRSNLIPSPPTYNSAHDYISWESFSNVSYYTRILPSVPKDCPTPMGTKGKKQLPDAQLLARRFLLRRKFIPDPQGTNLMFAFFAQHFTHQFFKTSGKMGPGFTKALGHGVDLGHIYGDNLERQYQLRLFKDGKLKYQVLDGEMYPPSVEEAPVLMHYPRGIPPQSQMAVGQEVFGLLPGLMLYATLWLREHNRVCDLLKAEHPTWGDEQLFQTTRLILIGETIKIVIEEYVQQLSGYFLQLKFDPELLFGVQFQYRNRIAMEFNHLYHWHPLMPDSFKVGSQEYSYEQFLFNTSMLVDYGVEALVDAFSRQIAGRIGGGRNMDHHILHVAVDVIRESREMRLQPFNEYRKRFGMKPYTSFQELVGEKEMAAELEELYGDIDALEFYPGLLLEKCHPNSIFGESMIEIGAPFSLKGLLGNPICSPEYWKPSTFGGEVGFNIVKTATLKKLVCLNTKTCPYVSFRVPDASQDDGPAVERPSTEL
Adenosine receptor A2a, sequence (P29274 whole entry): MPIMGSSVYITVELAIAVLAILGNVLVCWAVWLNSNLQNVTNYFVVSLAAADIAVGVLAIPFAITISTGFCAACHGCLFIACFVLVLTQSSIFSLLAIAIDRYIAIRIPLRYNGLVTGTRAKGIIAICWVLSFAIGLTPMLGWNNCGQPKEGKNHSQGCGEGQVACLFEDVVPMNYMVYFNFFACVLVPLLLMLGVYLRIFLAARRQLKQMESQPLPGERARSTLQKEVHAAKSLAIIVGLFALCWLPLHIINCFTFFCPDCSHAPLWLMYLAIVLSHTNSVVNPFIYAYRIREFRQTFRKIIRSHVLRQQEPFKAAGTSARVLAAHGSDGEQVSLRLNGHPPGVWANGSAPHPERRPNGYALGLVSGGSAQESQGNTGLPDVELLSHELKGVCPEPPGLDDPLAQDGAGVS
D(1A) dopamine receptor, sequence (P21728 whole entry): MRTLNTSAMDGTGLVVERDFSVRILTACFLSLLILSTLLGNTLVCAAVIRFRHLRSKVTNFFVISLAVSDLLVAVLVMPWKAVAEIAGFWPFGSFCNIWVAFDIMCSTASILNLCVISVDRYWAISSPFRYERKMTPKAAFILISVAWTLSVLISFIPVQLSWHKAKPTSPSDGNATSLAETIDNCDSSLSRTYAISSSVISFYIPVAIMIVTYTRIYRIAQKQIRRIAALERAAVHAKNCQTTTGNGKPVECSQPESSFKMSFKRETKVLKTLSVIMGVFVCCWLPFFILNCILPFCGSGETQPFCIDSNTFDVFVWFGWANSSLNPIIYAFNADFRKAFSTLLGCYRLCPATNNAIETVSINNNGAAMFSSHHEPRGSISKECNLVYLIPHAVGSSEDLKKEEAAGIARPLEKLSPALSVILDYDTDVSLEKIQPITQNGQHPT

Compound: Nc1ccc(S(N)(=O)=O)cc1 [SULFANILAMIDE]
AC50 [1]: > 30 µM
AC50 [2]: > 30 µM

Compound: CN(C)c1ccc(C(=C2C=CC(=[N+](C)C)C=C2)c2ccc(N(C)C)cc2)cc1 [GENTIAN VIOLET]
AC50 [3]: 20.8 µM

AC50 [4]: > 30 µM
AC50 [5]: > 30 µM
AC50 [6]: > 30 µM
AC50 [7]: > 30 µM
AC50 [8]: > 30 µM
AC50 [9]: > 30 µM
AC50 [10]: > 30 µM
AC50 [11]: > 30 µM
AC50 [12]: > 30 µM
Compound: HYDROXOCOBALAMIN
